Target: T1, BRD4 (Homo sapiens, UniProt O60885)
T1 construct: BD1 (BRD4(1), first bromodomain)
Test: BROMOscan bromodomain competition binding assay with qPCR readout

- Kd: 480 nM
Structure (SMILES): COc1cc2c(cc1-c1c(C)nn(C)c1C)ncc1nc(C)n([C@H](C)c3ccccc3)c12 [YL10, (R)-8-methoxy-2-methyl-1-(1-phenylethyl)-7-(1,3,5-trimethyl-1H-pyrazol-4-yl)-1H-imidazo[4,5-c]quinoline]

— PMC11677465, “Development of a PET Probe Targeting Bromodomain and Extra-Terminal Proteins for In Vitro and In Vivo Visualization” (Pharmaceuticals, 2024)
